Test systems include T-47D breast; SF-268 CNS; KM12 colon; CCRF-CEM leukemia; OVCAR-3 ovarian; 786-0 renal; UACC-257 melanoma; U251 CNS; RPMI-8226 leukemia; HOP-92 NSCLC.
Holding throughout (experiment): growth of human tumour cells (NCI), 48 h

The text below walks through data of PubChem BioAssay (NCI).

Values joined by “and” are separate entries in the source; they are usually repeats but may differ in a detail not shown here. Equal values may be shown once.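 48-hour exposure; five concentrations; linearly interpolated endpoints. Abbreviation: GI50, concentration required for 50% inhibition of growth. TGI: concentration producing complete growth inhibition.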

For `COC1(c2cccs2)c2ccccc2C(OC)(c2cccs2)c2ccccc21` (stereo not given), the TGI in the assay with T-47D breast, in the assay with SF-268 CNS, in the assay on KM12 colon, in the assay on CCRF-CEM leukemia, in the assay with OVCAR-3 ovarian and in the assay with 786-0 renal was above 100 µM throughout. The TGI in the assay with UACC-257 melanoma, in the assay on U251 CNS, in the assay on RPMI-8226 leukemia and in the assay on HOP-92 NSCLC was above 100 µM throughout.
In the case of `Cc1cc(N2CCCC2)c([N+](=O)[O-])cc1[N+](=O)[O-]`, the TGI with T-47D breast, in the assay with SF-268 CNS, with KM12 colon, in the assay with CCRF-CEM leukemia, in the assay with OVCAR-3 ovarian and with 786-0 renal was above 100 µM in each case. The TGI in the assay with UACC-257 melanoma, in the assay on U251 CNS, in the assay on RPMI-8226 leukemia and in the assay with HOP-92 NSCLC was above 100 µM each time.
Regarding `COC(=O)C1=CON2C3CC4CC(C3)CC(C4)C12C` (stereo not given), the TGI in the assay with T-47D breast, in the assay on SF-268 CNS, in the assay on KM12 colon, in the assay with CCRF-CEM leukemia, with OVCAR-3 ovarian and with 786-0 renal was above 100 µM each time. For the same molecule, the TGI in the assay on UACC-257 melanoma, in the assay with U251 CNS, with RPMI-8226 leukemia and with HOP-92 NSCLC was above 100 µM each time.
Take `O=[N+]([O-])c1ccc(N2N=C(c3ccc4ccccc4c3O)CC2c2ccc(Cl)cc2)c([N+](=O)[O-])c1` (stereo not given): the TGI with T-47D breast is above 100 µM; with SF-268 CNS, above 100 µM; in the assay with KM12 colon, above 100 µM; in the assay on CCRF-CEM leukemia, 42.7 µM; in the assay with OVCAR-3 ovarian, 79.9 µM; in the assay with 786-0 renal, above 100 µM. Moreover, the TGI in the assay with UACC-257 melanoma is above 100 µM; in the assay on U251 CNS it was above 100 µM; in the assay on RPMI-8226 leukemia, 63.2 µM; with HOP-92 NSCLC it was above 100 µM.
As to `c1csc(-c2ccsc2-c2ccsc2)c1`, the TGI in the assay with T-47D breast is above 100 µM; in the assay with SF-268 CNS it was above 100 µM; with KM12 colon, above 100 µM; in the assay with CCRF-CEM leukemia, above 100 µM; in the assay with OVCAR-3 ovarian, 87.6 µM; in the assay with 786-0 renal, above 100 µM. The TGI in the assay with UACC-257 melanoma, in the assay on U251 CNS, with RPMI-8226 leukemia and in the assay on HOP-92 NSCLC was above 100 µM throughout.
Regarding `O=[N+]([O-])c1ccc(O)c(/C=N/c2nc(-c3ccccc3)cs2)c1`, the TGI in the assay on T-47D breast is 91.6 µM; with SF-268 CNS it was 78 µM; with KM12 colon, above 100 µM; in the assay on CCRF-CEM leukemia, above 100 µM; in the assay with OVCAR-3 ovarian, above 100 µM; in the assay on 786-0 renal, above 100 µM. The TGI with UACC-257 melanoma is above 100 µM; in the assay on U251 CNS, above 100 µM; in the assay on RPMI-8226 leukemia, 30.9 µM; in the assay with HOP-92 NSCLC, 75.2 µM.
Turning to `O=[N+]([O-])c1cccc(Cl)c1Oc1ccc(S(=O)(=O)/N=C(\NO)Nc2ccc(Cl)cc2)cc1`, the TGI with T-47D breast came to 29.3 µM; in the assay on SF-268 CNS it was 28 µM; with KM12 colon, 31.2 µM; in the assay on CCRF-CEM leukemia it was 29.7 µM; in the assay with OVCAR-3 ovarian it was 22.6 µM; in the assay on 786-0 renal it was 25.7 µM. Further, the TGI in the assay on UACC-257 melanoma stood at 26 µM; in the assay on U251 CNS, 27.5 µM; in the assay with RPMI-8226 leukemia, 27.8 µM; in the assay on HOP-92 NSCLC, 17.1 µM.
Consider `CCCCCN(CCCCC)CC(C)(C)C(O)c1ccc(OC)c2ccccc12` (stereo not given), for which the TGI is 21.1 µM in the assay with T-47D breast; 31.5 µM with SF-268 CNS; 25.4 µM in the assay with KM12 colon; above 100 µM in the assay on CCRF-CEM leukemia; 26 µM in the assay with OVCAR-3 ovarian; 35.7 µM in the assay on 786-0 renal. In addition, the TGI was 26.1 µM with UACC-257 melanoma, 22.7 µM in the assay on U251 CNS, 32.1 µM in the assay on RPMI-8226 leukemia and 12.7 µM in the assay on HOP-92 NSCLC.
With `CN[C@@H](C)[C@@H](O)c1ccccc1`, the TGI was above 100 µM with T-47D breast; above 100 µM in the assay with SF-268 CNS; above 100 µM in the assay with KM12 colon; above 10 µM in the assay on CCRF-CEM leukemia; above 10 µM in the assay on OVCAR-3 ovarian; above 100 µM in the assay with 786-0 renal. For the same molecule, the TGI in the assay on UACC-257 melanoma, in the assay with U251 CNS, in the assay on RPMI-8226 leukemia and with HOP-92 NSCLC was above 100 µM each time.
Consider `Cc1cc(N(CCC#N)CCC#N)ccc1/C=C1\SC(=S)NC1=O`, for which the TGI with T-47D breast, in the assay on SF-268 CNS, in the assay on KM12 colon, with CCRF-CEM leukemia, in the assay on OVCAR-3 ovarian and in the assay on 786-0 renal was above 100 µM in each case. Further, the TGI in the assay on UACC-257 melanoma, in the assay with U251 CNS, with RPMI-8226 leukemia and in the assay on HOP-92 NSCLC was above 100 µM each time.
On to `CCN(CC)CCOC(=O)Cc1cccc2c(=O)cc(-c3ccccc3)oc12`, for which the TGI in the assay on T-47D breast is 50.2 µM; in the assay with SF-268 CNS, 62.5 µM and > 165 µM; in the assay with KM12 colon it was 62.5 µM and > 165 µM; with OVCAR-3 ovarian, 62.5 µM and > 76.3 µM; with 786-0 renal, 62.5 µM; in the assay on UACC-257 melanoma, 62.5 µM and > 154 µM. In addition, the TGI was 62.5 µM and > 121 µM in the assay on U251 CNS; 51 µM and > 224 µM with RPMI-8226 leukemia; 42.6 µM and 82.5 µM in the assay with HOP-92 NSCLC. Besides, the GI50 with KM12 colon was 83.5 µM; in the assay on CCRF-CEM leukemia, 336 µM; with OVCAR-3 ovarian, above 43.4 µM; in the assay on UACC-257 melanoma it was 67 µM; with U251 CNS, 57.9 µM; with HOP-92 NSCLC, 8.02 µM.
In the case of `CCOC(=O)C(=CN1CCNC1=S)C(=O)OCC`, the TGI with T-47D breast was above 100 µM; in the assay with SF-268 CNS it was above 100 µM; with KM12 colon, above 100 µM; in the assay with CCRF-CEM leukemia it was above 100 µM; with OVCAR-3 ovarian, above 32.4 µM; in the assay on 786-0 renal, above 100 µM. Besides, the TGI with UACC-257 melanoma, in the assay on U251 CNS, in the assay with RPMI-8226 leukemia and in the assay on HOP-92 NSCLC was above 100 µM in each case. Also, the GI50 in the assay on SF-268 CNS, in the assay with KM12 colon and in the assay with HOP-92 NSCLC was above 100 µM throughout.
For `Nc1nc(=O)n(C2OC(CO)C(O)C2O)c2ncc(-c3ccc(-c4ccccc4)cc3)nc12` (stereo not given), the TGI in the assay with T-47D breast, with SF-268 CNS, with KM12 colon, with CCRF-CEM leukemia, with 786-0 renal and in the assay on UACC-257 melanoma was above 100 µM each time. The TGI in the assay with U251 CNS was 88.9 µM; in the assay with RPMI-8226 leukemia, above 100 µM; in the assay with HOP-92 NSCLC, above 100 µM.
`CN(C)CC1CCC/C(=C\c2ccc(OC(=O)/C=C/c3ccc(Cl)c(Cl)c3)cc2)C1=O` (stereo not given): the TGI in the assay on T-47D breast came to 6.75 µM; in the assay with SF-268 CNS it was 36.1 µM; in the assay with KM12 colon, 3.61 µM; in the assay on CCRF-CEM leukemia, 1.77 µM; with OVCAR-3 ovarian, 14.6 µM; with 786-0 renal, 4.19 µM. Besides, the TGI in the assay with UACC-257 melanoma stood at 40.4 µM; in the assay on U251 CNS it was 27.9 µM; with RPMI-8226 leukemia, 0.62 µM; in the assay on HOP-92 NSCLC, 4.27 µM.
For the molecule `O=C(O)CCc1ccc2c(c1)CC1(Cc3ccccc3C1)C2`, the TGI in the assay on T-47D breast, in the assay on KM12 colon, with CCRF-CEM leukemia, in the assay with OVCAR-3 ovarian, with 786-0 renal and in the assay on UACC-257 melanoma was above 100 µM each time. For the same molecule, the TGI in the assay with U251 CNS, in the assay with RPMI-8226 leukemia and in the assay on HOP-92 NSCLC was above 100 µM each time.
As to `N=c1oc2ccccc2cc1-c1nc2ccccc2c(=O)[nH]1`, the TGI in the assay with T-47D breast, with SF-268 CNS, with KM12 colon, with CCRF-CEM leukemia, in the assay on 786-0 renal and in the assay with UACC-257 melanoma was above 100 µM in each case. Moreover, the TGI is above 100 µM in the assay on U251 CNS, above 100 µM in the assay with RPMI-8226 leukemia and 66.1 µM with HOP-92 NSCLC.
On to `O=C(C(Cl)=C(N1CCCCC1)N1CCCCC1)C(Cl)Cl`, for which the TGI with T-47D breast, in the assay on SF-268 CNS, with KM12 colon, with CCRF-CEM leukemia, with OVCAR-3 ovarian and with 786-0 renal was above 100 µM throughout. In addition, the TGI with UACC-257 melanoma, with RPMI-8226 leukemia and in the assay with HOP-92 NSCLC was above 100 µM throughout.
Turning to `Cc1cc(O)cc(O)c1C(=O)O[C@]1(C)C(=O)C=C2C=C(/C=C/C(=O)O)OC=C2C1=O`, the TGI was above 100 µM with T-47D breast; above 100 µM in the assay with SF-268 CNS; above 100 µM with KM12 colon; 88.3 µM with CCRF-CEM leukemia; above 100 µM in the assay with OVCAR-3 ovarian; above 100 µM in the assay with 786-0 renal. Moreover, the TGI with UACC-257 melanoma, in the assay with RPMI-8226 leukemia and with HOP-92 NSCLC was above 100 µM throughout.
For `CC1=CCC[C@H]2[C@](C)(CC3=CC(=O)C(Sc4ccccc4)=CC3=O)[C@@H](C)CC[C@]12C`, the GI50 in the assay with T-47D breast is 20.4 µM; in the assay on CCRF-CEM leukemia, 3.89 µM; in the assay with RPMI-8226 leukemia, 20.2 µM; in the assay on HOP-92 NSCLC it was 16.8 µM. Moreover, the TGI in the assay on T-47D breast was 72 µM; in the assay with KM12 colon, above 100 µM; in the assay on CCRF-CEM leukemia, 17.4 µM; in the assay with OVCAR-3 ovarian, 31.4 µM; in the assay on 786-0 renal it was 32.2 µM; with UACC-257 melanoma, 32.5 µM. Further, the TGI with U251 CNS was 40.1 µM; in the assay with RPMI-8226 leukemia, 46.1 µM; with HOP-92 NSCLC it was 31.9 µM.
Take `Cc1c2ccccc2c(C)n2c1nc1ccccc12`: the TGI in the assay with T-47D breast was found to be 89.6 µM; in the assay with SF-268 CNS it was 30 µM; in the assay with KM12 colon, 23.3 µM; in the assay on CCRF-CEM leukemia, 60.5 µM; in the assay with OVCAR-3 ovarian it was 21.8 µM; with 786-0 renal it was 25.9 µM. The TGI with UACC-257 melanoma is 76.4 µM; with RPMI-8226 leukemia it was above 100 µM; in the assay on HOP-92 NSCLC, 45.2 µM.
